pIC50: −log10 of the molar value.
Target: T1, human TRH-DE (Homo sapiens, UniProt Q9UKU6)
T1 construct: expressed in transfected cells; host or cells: Expi 293 cells (transient expression), membrane fraction
T1 sequence (Q9UKU6 1-1069): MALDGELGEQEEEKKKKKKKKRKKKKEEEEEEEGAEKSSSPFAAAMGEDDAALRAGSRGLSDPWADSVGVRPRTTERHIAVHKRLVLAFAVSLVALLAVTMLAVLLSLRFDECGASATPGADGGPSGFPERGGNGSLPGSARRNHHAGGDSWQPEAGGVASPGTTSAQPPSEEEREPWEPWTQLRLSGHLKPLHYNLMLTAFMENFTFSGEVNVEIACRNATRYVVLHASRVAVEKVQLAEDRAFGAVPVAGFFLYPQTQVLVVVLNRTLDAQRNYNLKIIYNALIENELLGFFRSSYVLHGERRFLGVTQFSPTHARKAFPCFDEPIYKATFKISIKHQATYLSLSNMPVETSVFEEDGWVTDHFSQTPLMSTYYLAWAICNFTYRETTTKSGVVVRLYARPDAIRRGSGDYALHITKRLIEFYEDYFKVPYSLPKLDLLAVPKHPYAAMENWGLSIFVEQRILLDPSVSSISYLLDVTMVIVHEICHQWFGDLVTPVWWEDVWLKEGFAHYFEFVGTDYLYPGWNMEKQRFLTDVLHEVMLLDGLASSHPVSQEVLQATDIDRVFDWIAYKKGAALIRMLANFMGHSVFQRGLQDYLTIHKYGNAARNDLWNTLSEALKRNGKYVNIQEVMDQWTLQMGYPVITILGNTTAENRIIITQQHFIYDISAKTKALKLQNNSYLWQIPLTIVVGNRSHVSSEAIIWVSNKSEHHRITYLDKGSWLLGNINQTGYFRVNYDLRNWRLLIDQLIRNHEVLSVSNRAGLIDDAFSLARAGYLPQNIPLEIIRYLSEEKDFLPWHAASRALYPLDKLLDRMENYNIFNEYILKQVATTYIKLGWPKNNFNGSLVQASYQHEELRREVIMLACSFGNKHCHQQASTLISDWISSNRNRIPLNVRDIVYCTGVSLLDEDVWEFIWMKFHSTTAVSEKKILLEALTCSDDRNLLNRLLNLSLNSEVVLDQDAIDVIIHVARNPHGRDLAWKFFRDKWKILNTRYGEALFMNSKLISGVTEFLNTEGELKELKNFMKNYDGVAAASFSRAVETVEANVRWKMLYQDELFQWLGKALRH
Experiment: TRH-DE inhibition test (RapidFire MS measurement of product Cyclo (His-Pro))
Format: biochemical
Conditions: membrane fraction of Expi 293 cells expressing human TRH-DE; 10 μM TRH substrate; room temperature, 2 hours; 16-point concentration test
Procedure: The compounds described in “1. […] The enzyme inhibitory activity of each of the compounds was evaluated by measuring the amount of the product Cyclo (His-Pro) of the enzyme reaction using a RapidFire RF 365 HTMS system (manufactured by Agilent Technologies, Inc.) connected to a triple quadrupole mass spectrometer (API 4000, manufactured by SCIEX). A membrane fraction prepared from Expi 293 cells transiently expressing human TRH-DE was used as an enzyme. The membrane fraction was suspended in 4 μg/ml of a reaction buffer (50 mM sodium phosphate (pH 7.4), 25 mM NaCl, 0.01% Triton […], and 200 μM bacitracin) and mixed with the test compound at each concentration. 10 μM […]), which was a substrate, was added, and the mixture was reacted at room temperature for 2 hours. The reaction was stopped in the same amount of a solution of acetonitrile:methanol (1:1) containing 1 μM of the stable isotope Cyclo ([…]) as an internal standard, and the supernatant was collected after centrifugation. In the RapidFire RF 365 HTMS system, a portion of the supernatant was aspirated, loaded onto a Graphic Carbon column (manufactured by Agilent Technologies, Inc.) with a buffer A (water, 0.09% formic acid, 0.01% trifluoroacetic acid) and washed with ultrapure water. Next, washing was performed with acetonitrile. The contents in the column were eluted with a buffer B (80% acetonitrile, 0.09% formic acid, 0.01% trifluoroacetic acid) and injected into a mass spectrometer for analysis. […] The ESI voltage was set to 5,500 V and the temperature was set to 650° C. For the calculation of the inhibition rate, a Ratio value corrected by dividing the product amount by the internal standard amount was used. The inhibition rate (%) was calculated by % Inhibition={1-(Ratio value of sample-Ratio value of blank)/(Ratio value of control-Ratio value of blank)}×100. The IC50 value was calculated from the concentration reactivity test at 16 points.

| pIC50 | Structure (SMILES) |
| --- | --- |
| 6.81 | CC1c2cc(F)cnc2C(=O)N1C1CC2(C1)CN(S(=O)(=O)c1ccccc1F)C2 (racemic) [Example 292] |
| 6.92 | Cc1cnc2c(c1)C(C)N(C1CC3(C1)CN(S(=O)(=O)c1ccccc1F)C3)C2=O (racemic) [Example 293] |
| 6.93 | COc1ccc2c(n1)C(=O)N(C1CC3(C1)CN(S(=O)(=O)c1ccccc1F)C3)C2C (racemic) [Example 294] |
| 6.45 | CC1c2cnccc2C(=O)N1C1CC2(C1)CN(S(=O)(=O)c1ccccc1F)C2 (racemic) [Example 295] |
| 7.48 | C[C@@H]1CC[C@H](C)N(C2CC3(C2)CN(S(=O)(=O)c2ccccc2F)C3)C(=O)C1 (racemic) [Example 436, (4R*,7S*)-1-[2-(2-fluorophenyl)sulfonyl-2-azaspiro[3.3]heptan-6-yl]-4,7-dimethylazepan-2-one] |
| 6.53 | C[C@@H]1CC[C@@H](C)N(C2CC3(C2)CN(S(=O)(=O)c2ccccc2F)C3)C(=O)C1 (racemic) [Example 437, (4R*,7R*)-1-[2-(2-fluorophenyl)sulfonyl-2-azaspiro[3.3]heptan-6-yl]-4,7-dimethylazepan-2-one] |
| 6.90 | CC1CCC(=O)N(C2CC3(C2)CN(S(=O)(=O)c2ccccc2F)C3)C(C)C1 (racemic) [Example 438] |
| 6.91 | CC1CCC(=O)N(C2CC3(C2)CN(S(=O)(=O)c2ccccc2F)C3)C(C)C1 (racemic) [Example 439] |
| 6.70 | CC1CCCC(=O)N1C1CC2(C1)CN(S(=O)(=O)c1ccccc1F)C2 (racemic) [Example 440, 1-[2-(2-fluorophenyl)sulfonyl-2-azaspiro[3.3]heptan-6-yl]-6-methylpiperidin-2-one] |
| 8.70 | C[C@@H]1COc2nc(N3C[C@H]4C[C@H]4C3)ncc2C(=O)N1C1CC2(C1)CN(S(=O)(=O)c1ccccc1F)C2 (relative stereo) [Example 168, (7R)-2-[(1S*,5R*)-3-azabicyclo[3.1.0]hexan-3-yl]-6-[2-(2-fluorophenyl)sulfonyl]-2-azaspiro[3.3]heptan-6-yl]-7-methyl-7,8-dihydropyrimido[5,4-f][1,4]oxazepin-5-one] |
| 8.30 | CC1COc2cccnc2C(=O)N1C1CC2(C1)CN(S(=O)(=O)c1ccccc1F)C2 (single isomer, unassigned) [Example 348] |
| 6.29 | CC1COc2cccnc2C(=O)N1C1CC2(C1)CN(S(=O)(=O)c1ccccc1F)C2 (single isomer, unassigned) [Example 349] |
| 7.96 | CC1CCc2nc(C(F)(F)F)sc2C(=O)N1C1CC2(C1)CN(S(=O)(=O)c1ccccc1F)C2 (single isomer, unassigned) [Example 352] |
| 7.18 | CC1CCc2nc(C(F)(F)F)sc2C(=O)N1C1CC2(C1)CN(S(=O)(=O)c1ccccc1F)C2 (single isomer, unassigned) [Example 353] |
| 8.70 | CC1CCc2nc(C3CC3)sc2C(=O)N1C1CC2(C1)CN(S(=O)(=O)c1ccccc1F)C2 (single isomer, unassigned) [Example 354] |
| 7.77 | CC1CCc2nc(C3CC3)sc2C(=O)N1C1CC2(C1)CN(S(=O)(=O)c1ccccc1F)C2 (single isomer, unassigned) [Example 355] |
| 7.36 | CC1Cc2nc(C(F)(F)F)ccc2C(=O)N1C1CC2(C1)CN(S(=O)(=O)c1ccccc1F)C2 (single isomer, unassigned) [Example 356] |
| 7.05 | CC1c2ccccc2C(=O)N1C1CC2(C1)CN(S(=O)(=O)c1ccccc1F)C2 (single isomer, unassigned) [Example 358] |
| 6.34 | CC1c2ccccc2C(=O)N1C1CC2(C1)CN(S(=O)(=O)c1ccccc1F)C2 (single isomer, unassigned) [Example 359] |
| 7.07 | CC1c2cccnc2C(=O)N1C1CC2(C1)CN(S(=O)(=O)c1ccccc1F)C2 (single isomer, unassigned) [Example 360] |
| 6.74 | CC1c2cc(F)cnc2C(=O)N1C1CC2(C1)CN(S(=O)(=O)c1ccccc1F)C2 (single isomer, unassigned) [Example 362] |

| pIC50 | Structure (SMILES) |
| --- | --- |
| 6.80 | CC1c2cc(C(F)(F)F)cnc2C(=O)N1C1CC2(C1)CN(S(=O)(=O)c1ccccc1F)C2 (single isomer, unassigned) [Example 365] |
| 8.00 | C[C@@H]1COc2nc(OC3CC(C#N)C3)ncc2C(=O)N1C1CC2(C1)CN(S(=O)(=O)c1ccccc1F)C2 (stereo in doubt) [Example 379] |
| 7.89 | C[C@@H]1COc2nc(Cl)ncc2C(=O)N1C1CC2(C1)CN(S(=O)(=O)c1ccccc1F)C2 [Example 6] |
| 7.89 | C[C@@H]1COc2nccnc2C(=O)N1C1CC2(C1)CN(S(=O)(=O)c1ccccc1F)C2 [Example 8, (7R)-8-[2-(2-fluorophenyl)sulfonyl-2-azaspiro[3.3]heptan-6-yl]-7-methyl-6,7-dihydropyrazino[2,3-f][1,4]oxazepin-9-one] |
| 8.40 | C[C@@H]1COc2cc(F)cnc2C(=O)N1C1CC2(C1)CN(S(=O)(=O)c1ccccc1F)C2 [Example 11] |
| 8.05 | C[C@@H]1COc2ccc(Cl)nc2C(=O)N1C1CC2(C1)CN(S(=O)(=O)c1ccccc1F)C2 [Example 12] |
| 8.70 | C[C@@H]1COc2cc(Cl)cnc2C(=O)N1C1CC2(C1)CN(S(=O)(=O)c1ccccc1F)C2 [Example 13] |
| 8.10 | C[C@@H]1COc2ccc(C(F)(F)F)nc2C(=O)N1C1CC2(C1)CN(S(=O)(=O)c1ccccc1F)C2 [Example 17] |
| 9.00 | C[C@@H]1COc2cc(Br)cnc2C(=O)N1C1CC2(C1)CN(S(=O)(=O)c1ccccc1F)C2 [Example 18] |
| 8.70 | C[C@@H]1COc2ccncc2C(=O)N1C1CC2(C1)CN(S(=O)(=O)c1ccccc1F)C2 [Example 19] |
| 8.70 | C[C@@H]1COc2cc(Cl)ncc2C(=O)N1C1CC2(C1)CN(S(=O)(=O)c1ccccc1F)C2 [Example 22] |
| 8.52 | C[C@@H]1COc2cc(C(F)(F)F)ncc2C(=O)N1C1CC2(C1)CN(S(=O)(=O)c1ccccc1F)C2 [Example 24] |
| 7.85 | C[C@@H]1COc2ncc(F)cc2C(=O)N1C1CC2(C1)CN(S(=O)(=O)c1ccccc1F)C2 [Example 27] |
| 8.52 | C[C@@H]1COc2ncc(Cl)cc2C(=O)N1C1CC2(C1)CN(S(=O)(=O)c1ccccc1F)C2 [Example 32] |
| 7.82 | C[C@@H]1COc2ncc(C(F)(F)F)cc2C(=O)N1C1CC2(C1)CN(S(=O)(=O)c1ccccc1F)C2 [Example 33] |
| 8.10 | C[C@@H]1COc2nc(Cl)ccc2C(=O)N1C1CC2(C1)CN(S(=O)(=O)c1ccccc1F)C2 [Example 34] |
| 8.15 | C[C@@H]1COc2nc(OC(F)(F)F)ccc2C(=O)N1C1CC2(C1)CN(S(=O)(=O)c1ccccc1F)C2 [Example 35] |
| 7.68 | C[C@@H]1COc2nc(Cl)c(F)cc2C(=O)N1C1CC2(C1)CN(S(=O)(=O)c1ccccc1F)C2 [Example 36] |
| 8.22 | Cc1nc2c(cc1Br)C(=O)N(C1CC3(C1)CN(S(=O)(=O)c1ccccc1F)C3)[C@H](C)CO2 [Example 37] |
| 7.92 | C[C@@H]1COc2ncccc2C(=O)N1C1CC2(C1)CN(S(=O)(=O)c1ccccc1F)C2 [Example 38] |
| 7.70 | CC[C@@H]1COc2ncccc2C(=O)N1C1CC2(C1)CN(S(=O)(=O)c1ccccc1F)C2 [Example 39] |

Source: patent US20260132127A1, “NOVEL SPIRO COMPOUND” (MITSUBISHI TANABE PHARMA CORPORATION, priority 2021, published 2026)
